Experimental data reported in patent US9611267B2, “Substituted tricyclic compounds as FGFR inhibitors” (Incyte Corporation, priority 2012, dated 2017).

How the values were obtained:
Assay type in all cases: biochemical
FGFR1 = FGFR1 (Homo sapiens (Human), UniProt P11362); assay: FGFR enzymatic assay (FRET peptide phosphorylation), FGFR1; conditions: FGFR1 enzyme 0.02 nM, ATP 210 μM
Protocol: (§1) The inhibitor potency of the exemplified compounds was measured in an enzyme assay that measures peptide phosphorylation using FRET measurements to detect product formation. Inhibitors were serially diluted in DMSO and a volume of 0.5 μL was transferred to the wells of a 384-well plate. For FGFR3, a 10 μL volume of FGFR3 enzyme (Millipore) diluted in assay buffer (50 mM HEPES, 10 mM MgCl2, 1 mM EGTA, 0.01% Tween-20, 5 mM DTT, pH 7.5) was added to the plate and pre-incubated for 5-10 minutes. Appropriate controls (enzyme blank and enzyme with no inhibitor) were included on the plate. […] The plate was incubated at 25° C. for 1 hr. […] The plate was allowed to equilibrate for ˜1 hr before scanning the wells on a PheraStar plate reader (BMG Labtech).
(§2) The enzymes were purchased from Millipore or Invitrogen.
(§3) GraphPad prism3 was used to analyze the data. The IC50 values were derived by fitting the data to the equation for a sigmoidal dose-response with a variable slope. Y=Bottom+(Top−Bottom)/(1+10^((LogIC50−X)*HillSlope)) where X is the logarithm of concentration and Y is the response.

FGFR2 = FGFR2 (Homo sapiens (Human), UniProt P21802); assay: FGFR enzymatic assay (FRET peptide phosphorylation), FGFR2; conditions: FGFR2 enzyme 0.01 nM, ATP 100 μM
Protocol: as §1, §2, §3

FGFR3 = FGFR3 (Homo sapiens (Human), UniProt P22607); assay: FGFR enzymatic assay (FRET peptide phosphorylation), FGFR3; conditions: FGFR3 enzyme (Millipore), ATP 140 μM
Protocol: as §1, §3

Measured: IC50

Sequence of FGFR1 (P11362 22-822): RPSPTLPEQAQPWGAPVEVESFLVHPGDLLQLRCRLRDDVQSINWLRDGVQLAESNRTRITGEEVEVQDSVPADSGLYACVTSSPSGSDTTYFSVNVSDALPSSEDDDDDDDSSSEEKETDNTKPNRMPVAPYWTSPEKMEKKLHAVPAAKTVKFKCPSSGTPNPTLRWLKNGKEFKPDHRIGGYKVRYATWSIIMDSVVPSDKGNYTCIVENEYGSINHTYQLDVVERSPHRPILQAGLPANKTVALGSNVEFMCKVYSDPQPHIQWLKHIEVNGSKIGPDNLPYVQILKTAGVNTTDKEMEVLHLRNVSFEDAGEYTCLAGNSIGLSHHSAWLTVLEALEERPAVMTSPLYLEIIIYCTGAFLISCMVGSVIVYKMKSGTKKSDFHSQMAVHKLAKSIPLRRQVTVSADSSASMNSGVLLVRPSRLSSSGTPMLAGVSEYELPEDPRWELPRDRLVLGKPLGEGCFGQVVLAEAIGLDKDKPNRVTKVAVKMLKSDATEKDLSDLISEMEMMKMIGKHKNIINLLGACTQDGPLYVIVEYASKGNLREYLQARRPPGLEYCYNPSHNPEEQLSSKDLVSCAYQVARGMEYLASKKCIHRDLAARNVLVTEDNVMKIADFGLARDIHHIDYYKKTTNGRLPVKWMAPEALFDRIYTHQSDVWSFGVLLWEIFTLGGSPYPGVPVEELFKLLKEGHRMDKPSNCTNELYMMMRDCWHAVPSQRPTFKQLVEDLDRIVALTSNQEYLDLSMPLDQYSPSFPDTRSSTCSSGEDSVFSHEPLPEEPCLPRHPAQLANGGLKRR
Sequence of FGFR3 (P22607 23-806): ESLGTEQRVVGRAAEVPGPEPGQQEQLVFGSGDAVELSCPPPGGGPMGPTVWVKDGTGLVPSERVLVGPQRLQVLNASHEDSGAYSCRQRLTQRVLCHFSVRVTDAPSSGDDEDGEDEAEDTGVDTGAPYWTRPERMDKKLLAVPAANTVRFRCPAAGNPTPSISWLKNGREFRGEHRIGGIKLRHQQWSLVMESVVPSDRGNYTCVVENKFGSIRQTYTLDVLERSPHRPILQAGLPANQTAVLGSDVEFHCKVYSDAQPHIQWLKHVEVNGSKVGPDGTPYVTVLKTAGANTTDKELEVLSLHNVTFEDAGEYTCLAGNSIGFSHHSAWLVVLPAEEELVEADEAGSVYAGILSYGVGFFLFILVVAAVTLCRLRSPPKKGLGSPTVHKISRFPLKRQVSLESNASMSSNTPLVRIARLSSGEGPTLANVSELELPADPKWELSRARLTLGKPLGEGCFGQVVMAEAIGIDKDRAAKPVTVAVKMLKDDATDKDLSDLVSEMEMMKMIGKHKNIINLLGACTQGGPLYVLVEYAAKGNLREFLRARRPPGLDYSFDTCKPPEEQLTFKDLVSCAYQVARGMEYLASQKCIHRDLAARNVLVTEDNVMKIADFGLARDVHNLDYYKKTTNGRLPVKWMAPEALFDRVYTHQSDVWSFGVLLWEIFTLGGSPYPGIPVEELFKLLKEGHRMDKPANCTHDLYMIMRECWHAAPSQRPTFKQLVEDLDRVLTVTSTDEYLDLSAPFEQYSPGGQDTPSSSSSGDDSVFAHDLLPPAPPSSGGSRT
Sequence of FGFR2 (P21802 22-821): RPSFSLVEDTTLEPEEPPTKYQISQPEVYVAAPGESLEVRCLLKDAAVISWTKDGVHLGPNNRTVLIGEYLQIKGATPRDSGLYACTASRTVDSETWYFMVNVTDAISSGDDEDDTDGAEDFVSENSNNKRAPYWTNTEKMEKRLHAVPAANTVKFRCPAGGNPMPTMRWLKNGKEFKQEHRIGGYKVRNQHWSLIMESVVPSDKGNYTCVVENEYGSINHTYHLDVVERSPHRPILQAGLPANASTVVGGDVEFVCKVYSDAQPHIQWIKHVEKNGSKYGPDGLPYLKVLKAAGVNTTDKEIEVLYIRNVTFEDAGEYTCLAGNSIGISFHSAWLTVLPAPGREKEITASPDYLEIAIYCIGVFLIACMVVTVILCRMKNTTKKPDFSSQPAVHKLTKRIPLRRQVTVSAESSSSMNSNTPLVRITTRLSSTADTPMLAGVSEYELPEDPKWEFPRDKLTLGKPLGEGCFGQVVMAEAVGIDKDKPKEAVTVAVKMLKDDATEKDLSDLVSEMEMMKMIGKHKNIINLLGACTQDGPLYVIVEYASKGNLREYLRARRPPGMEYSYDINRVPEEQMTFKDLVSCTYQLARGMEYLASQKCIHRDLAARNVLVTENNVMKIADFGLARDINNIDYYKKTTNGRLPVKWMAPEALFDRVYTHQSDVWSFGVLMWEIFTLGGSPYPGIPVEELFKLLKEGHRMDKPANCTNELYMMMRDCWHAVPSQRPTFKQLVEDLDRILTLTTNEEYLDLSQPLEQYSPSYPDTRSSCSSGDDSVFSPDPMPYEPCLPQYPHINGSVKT

COc1cc(OC)c(F)c(N2Cc3cnc4[nH]c(C(=O)N5CCN(C)CC5)cc4c3N(C)C2=O)c1F [Example 40, 3-(2,6-Difluoro-3,5-dimethoxyphenyl)-1-methyl-8-[(4-methylpiperazin-1-yl)carbonyl]-1,3,4,7-tetrahydro-2H-pyrrolo[3′,2′:5,6]pyrido[4,3-d]pyrimidin-2-one]
< 100 nM: all assays above

COc1cc(OC)c(F)c(N2Cc3cnc4[nH]ncc4c3NC2=O)c1F [Example 99, 3-(2,6-difluoro-3,5-dimethoxyphenyl)-1,3,4,7-tetrahydro-2H-pyrazolo[4′,3′:5,6]pyrido[4,3-d]pyrimidin-2-one]
< 100 nM: all assays above

COc1cc(OC)c(F)c(N2Cc3cnc4c(c3N(Cc3cccc(C#N)c3)C2=O)CC(=O)N4)c1F [Example 123, 3-{[3-(2,6-difluoro-3,5-dimethoxyphenyl)-2,8-dioxo-2,3,4,7,8,9-hexahydro-1H-pyrrolo[3′,2′:5,6]pyrido[4,3-d]pyrimidin-1-yl]methyl}benzonitrile]
< 100 nM: all assays above

COc1cc(OC)c(F)c(N2Cc3cnc4[nH]c(CCN5CC(OC)C5)cc4c3N(C)C2=O)c1F [Example 144, 3-(2,6-difluoro-3,5-dimethoxyphenyl)-8-[2-(3-methoxyazetidin-1-yl)ethyl]-1-methyl-1,3,4,7-tetrahydro-2Hpyrrolo[3′,2′:5,6]pyrido[4,3-d]pyrimidin-2-one]
< 100 nM: all assays above

COc1cc(OC)c(F)c(N2Cc3cnc4[nH]ccc4c3CC2=O)c1F [Example 60, 7-(2,6-difluoro-3,5-dimethoxyphenyl)-3,6,7,9-tetrahydro-8H-pyrrolo[2,3-c]-2,7-naphthyridin-8-one]
< 100 nM: all assays above

COc1cc(OC)c(F)c(N2Cc3cnc4[nH]c(CN5CCN(C)CC5)cc4c3C(C)(C)C2=O)c1F [Example 153, 7-(2,6-difluoro-3,5-dimethoxyphenyl)-9,9-dimethyl-2-[(4-methylpiperazin-1-yl)methyl]-3,6,7,9-tetrahydro-8H-pyrrolo[2,3-c]-2,7-naphthyridin-8-one]
< 100 nM: all assays above

COc1cc(OC)c(F)c(N2Cc3cnc4[nH]cc(C)c4c3N(C)C2=O)c1F [Example 104, 3-(2,6-difluoro-3,5-dimethoxyphenyl)-1,9-dimethyl-1,3,4,7-tetrahydro-2H-pyrrolo[3′,2′:5,6]pyrido[4,3-d]pyrimidin-2-one]
< 100 nM: all assays above

COc1cc(OC)c(F)c(N2Cc3cnc4[nH]c(CCN5CC(F)C5)cc4c3N(C)C2=O)c1F [Example 143, 3-(2,6-difluoro-3,5-dimethoxyphenyl)-8-[2-(3-fluoroazetidin-1-yl)ethyl]-1-methyl-1,3,4,7-tetrahydro-2Hpyrrolo[3′,2′:5,6]pyrido[4,3-d]pyrimidin-2-one]
< 100 nM: all assays above

COc1cc(OC)c(F)c(N2Cc3cnc4[nH]c(C5CCOCC5)cc4c3N(C)C2=O)c1F [Example 39, 3-(2,6-Difluoro-3,5-dimethoxyphenyl)-1-methyl-8-(tetrahydro-2H-pyran-4-yl)-1,3,4,7-tetrahydro-2H-pyrrolo[3′,2′:5,6]pyrido[4,3-d]pyrimidin-2-one]
< 100 nM: all assays above

COc1cc(OC)c(F)c(N2Cc3cnc4[nH]c(CCN5CCOCC5)cc4c3N(c3cccc(F)c3)C2=O)c1F [Example 227, 3-(2,6-difluoro-3,5-dimethoxyphenyl)-1-(3-fluorophenyl)-8-(2-morpholin-4-ylethyl)-1,3,4,7-tetrahydro-2H-pyrrolo[3′,2′:5,6]pyrido[4,3-d]pyrimidin-2-one]
< 100 nM: all assays above

COc1cc(OC)c(F)c(N2Cc3cnc4[nH]ncc4c3N(Cc3ccon3)C2=O)c1F [Example 162, 3-(2,6-Difluoro-3,5-dimethoxyphenyl)-1-(isoxazol-3-ylmethyl)-1,3,4,7-tetrahydro-2H-pyrazolo[4′,3′:5,6]pyrido[4,3-d]pyrimidin-2-one]
< 100 nM: all assays above

COc1cc(OC)c(F)c(N2Cc3cnc4[nH]c(CN5CCOCC5)cc4c3N(CCF)C2=O)c1F [Example 232, 3-(2,6-difluoro-3,5-dimethoxyphenyl)-1-(2-fluoroethyl)-8-(morpholin-4-ylmethyl)-1,3,4,7-tetrahydro-2H-pyrrolo[3′,2′:5,6]pyrido[4,3-d]pyrimidin-2-one]
< 100 nM: all assays above

CCN1C(=O)N(c2c(F)c(OC)cc(OC)c2Cl)Cc2cnc3[nH]c(CN4CCOCC4)cc3c21 [Example 141, 3-(2-chloro-6-fluoro-3,5-dimethoxyphenyl)-1-ethyl-8-(morpholin-4-ylmethyl)-1,3,4,7-tetrahydro-2H-pyrrolo[3′,2′:5,6]pyrido[4,3-d]pyrimidin-2-one]
< 100 nM: all assays above

COc1cc(OC)c(F)c(N2Cc3cnc4[nH]c(C(=O)N5CCC(F)(F)CC5)cc4c3N(C)C2=O)c1F [Example 42, 3-(2,6-Difluoro-3,5-dimethoxyphenyl)-8-[(4,4-difluoropiperidin-1-yl)carbonyl]-1-methyl-1,3,4,7-tetrahydro-2H-pyrrolo[3′,2′:5,6]pyrido[4,3-d]pyrimidin-2-one]
< 100 nM: all assays above

COc1cc(OC)c(F)c(N2Cc3cnc4[nH]c(C(=O)N5CCN(C)CC5)cc4c3N(C)C2=O)c1 [Example 30, 3-(2-Fluoro-3,5-dimethoxyphenyl)-1-methyl-8-[(4-methylpiperazin-1-yl)carbonyl]-1,3,4,7-tetrahydro-2H-pyrrolo[3′,2′:5,6]pyrido[4,3-d]pyrimidin-2-one]
< 100 nM: all assays above

COc1cc(OC)c(F)c(N2Cc3cnc4c(c3N(c3ccc(Cl)cn3)C2=O)CC(=O)N4)c1F [Example 81, 1-(5-chloropyridin-2-yl)-3-(2,6-difluoro-3,5-dimethoxyphenyl)-3,4,7,9-tetrahydro-1H-pyrrolo[3′,2′:5,6]pyrido[4,3-d]pyrimidine-2,8-dione]
< 100 nM: all assays above

COc1cc(OC)c(F)c(N2Cc3cnc4[nH]ncc4c3N(CCc3ccncc3)C2=O)c1F [Example 171, 3-(2,6-Difluoro-3,5-dimethoxyphenyl)-1-(2-pyridin-4-ylethyl)-1,3,4,7-tetrahydro-2H-pyrazolo[4′,3′:5,6]pyrido[4,3-d]pyrimidin-2-one]
< 100 nM: all assays above

COc1cc(OC)c(Cl)c(N2Cc3cnc4[nH]c(C#N)cc4c3N(C)C2=O)c1 [Example 16, 3-(2-Chloro-3,5-dimethoxyphenyl)-1-methyl-2-oxo-2,3,4,7-tetrahydro-1H-pyrrolo[3′,2′:5,6]pyrido[4,3-d]pyrimidine-8-carbonitrile]
< 100 nM: all assays above

CCN1C(=O)N(c2cc(OC)cc(OC)c2)Cc2cnc3[nH]ccc3c21 [Example 3, 3-(3,5-Dimethoxyphenyl)-1-ethyl-1,3,4,7-tetrahydro-2H-pyrrolo[3′,2′:5,6]pyrido[4,3-d]pyrimidin-2-one]
< 100 nM: all assays above

COc1cc(OC)c(F)c(N2Cc3cnc4[nH]c(CN5CCN(C)CC5)cc4c3N(c3cccc(F)c3)C2=O)c1F [Example 213, 3-(2,6-difluoro-3,5-dimethoxyphenyl)-1-(3-fluorophenyl)-8-[(4-methylpiperazin-1-yl)methyl]-1,3,4,7-tetrahydro-2H-pyrrolo[3′,2′:5,6]pyrido[4,3-d]pyrimidin-2-one]
< 100 nM: all assays above

CCN1C(=O)N(c2c(F)c(OC)cc(OC)c2F)Cc2cnc3[nH]c(COc4cccnc4)cc3c21 [Example 220, 3-(2,6-difluoro-3,5-dimethoxyphenyl)-1-ethyl-8-[(pyridin-3-yloxy)methyl]-1,3,4,7-tetrahydro-2H-pyrrolo[3′,2′:5,6]pyrido[4,3-d]pyrimidin-2-one]
< 100 nM: all assays above

COc1cc(OC)c(F)c(N2Cc3cnc4[nH]ccc4c3N(c3cccc(Cl)c3F)C2=O)c1F [Example 84, 1-(3-chloro-2-fluorophenyl)-3-(2,6-difluoro-3,5-dimethoxyphenyl)-1,3,4,7-tetrahydro-2H-pyrrolo[3′,2′:5,6]pyrido[4,3-d]pyrimidin-2-one]
< 100 nM: all assays above

COc1cc(OC)c(F)c(N2Cc3cnc4[nH]ncc4c3N([C@@H]3CCOC3)C2=O)c1F [Example 90, 3-(2,6-difluoro-3,5-dimethoxyphenyl)-1-[(3R)-tetrahydrofuran-3-yl]-1,3,4,7-tetrahydro-2H-pyrazolo[4′,3′:5,6]pyrido[4,3-d]pyrimidin-2-one]
< 100 nM: all assays above
